{"source": "patent US8324166B2", "about": "“Neuroprotection using NAP-like and SAL-like peptide mimetics” (Ramot at Tel-Aviv University, Ltd., priority 2007, dated 2012)", "key": {"ADNP": {"tested_on": "ADNP", "assay": "Nuclear ADNP level in cerebral cortex by immunoblotting", "format": "in vivo, mouse", "conditions": "NAT vs vehicle treated TAU-Tg, p=0.0028, listed as NAT", "method": "The experiment included three groups: Tau-Tg female mice, 10-month-old, treated by intranasal administration of NAT 2 μg/5 μl/mouse/day (n=5) or vehicle (SW/mouse/day) (n=6), and as control, non-Tg female littermates treated by vehicle (SW/mouse/day) (n=7).\nMouse brain tissue was rapidly dissected and quickly separated into four different brain sections: cortex, hippocampus, cerebellum and rest of the brain. Brains were kept frozen at −80° C. for further biochemical analysis. Total levels of nuclear ADNP were analyzed by immunoblotting. Cerebral cortex samples (˜50 mg each) were homogenized and cytoplasmic and nucleus proteins were separated using lysis buffer (20 mM TRIS HCl pH […], 0.1 mM EDTA, 1.5 mM MgCl2, 0.2% NP-40) and extraction buffer (10 mM TRIS HCl pH 7.7, 0.1 mM EDTA, 1.5 mM MgCl2, 20% Glycerol, 1.61 gr NaCl). Protein amount was estimated and corrected by using the Bradford assay and then separated by electrophoresis on 12% polyacrylamide gels containing SDS (Shiryaev et al., (2009) Neurobiol Dis, 34, 381-388). Western blot analyses were performed by applying brain protein samples onto two gels. Each gel had sample representation from each one of the three groups. […] Protein bands on hyperfilm were quantified using photochromatography analysis. The ADNP amount in each band was calculated as its percentage from the total amount of all bands. […]"}, "[1]": {"tested_on": "neurons in mixed neuroglial cultures intoxicated with beta-amyloid 1-42", "assay": "MAP2 assay: neuronal survival in mixed neuroglial cultures following beta-amyloid intoxication", "format": "cell-based, rat", "method": "Newborn rats were used to prepare cerebral cortical astrocytes cell cultures as described above. After suspending the cells in D1, they were centrifuged at 100 g for 5 minutes and the supernatant discarded. The cell pellet was resuspended in solution D2 containing 5% heat inactivated horse serum (Biological Industries, Beit Haemek, Israel), 0.1% gentamycin, 0.1% penicillin-streptomycin-nystatin, 1% N3 (defined medium components essential for neuronal development in culture, (Romijn HJ, Brain Res., 254:583-9 (1981)]), 15 μg/ml 5′-fluoro-2-deoxyuridine (FUDR, Sigma, Rehovot, Israel), and 3 μg/ml uridine (Sigma, Rehovot, Israel) in DMEM. Cells were counted in a hemocytometer, diluted in D2 and 17,000 cells/well/96 well plate were seeded on 8-day-old astrocytes prepared as described above. The medium was changed the next day to D2 without FUDR and uridine. Cells were allowed to grow for one week at 37° C. 10% CO2 before experiments were performed.\nNeuronal survival in neuroglial cultures following beta-amyloid intoxication was assayed using the neuron specific antibody, MAP2. […] The cells were incubated for 5 days in 10% CO2 at 37°C.\n5 days after the addition of beta-amyloid and the peptide, the cells were fixed by removing the media from each well and the addition of cold methanol. The cells were left in the refrigerator overnight. The cells were immunostained with anti-MAP2 as previously described (Brooke S M et al., Neurosci. Lett., 267:21-4(1999)): the methanol was removed and the cells were washed 4 times with phosphate buffered saline (PBS). Blocking for non-specific antibody binding was performed by incubating the cells in 5% non-fat milk in PBS overnight at 4° C. The blocking solution was then removed and anti-MAP2(1:1000; Sigma, Rehovot, Israel) was added to each well. The cells were incubated for 30 minutes at room temperature, followed by 4 washes with PBS. Biotinylated anti-mouse IgG (1:200, Vector Laboratories, Burlingame, Calif., USA) was then added to each well, and the cells were incubated for 30 minutes at room temperature followed by 4 washes with PBS. The cells were incubated at room temperature for 30 minutes with the ABC reagent (Vector Laboratories, Burlingame, Calif., USA) prepared according to the manufacturer's protocol and then washed 4 times with PBS. ABTS reagent, prepared according to the manufacturer's protocol (Vector Laboratories, Burlingame, Calif., USA) was then added to each well and the cells were incubated for 20 minutes in the dark at room temperature. The plates were read in an ELISA plate reader at 405nm. As blanks, wells containing untreated cells and no primary antibody were used."}}, "note": "Values joined by “and” are separate entries in the source; they are usually repeats but may differ in a detail not shown here. Identical values can stand only once. “Also recorded” adds a separate entry of the source.", "data": [{"sequence": "NATLSIHQ (synthetic NAP-like peptide)", "values": [{"measurement": "amount of nuclear ADNP protein", "setting": "ADNP", "value": "difference between the NAT and vehicle treated TAU-Tg groups; also recorded: statistically significant increase"}, {"measurement": "effective concentrations on neuronal survival: Neurons (25 μM beta-amyloid)", "setting": "[1]; MAP2 assay, 5 days, tested 10^−19M to 10^−5M, significance vs negative control in cell", "value": "10^−19 M and 10^−15 M and 10^−17 M and 10^−13 M"}, {"measurement": "activity in neuroprotection assay", "setting": "[1]; neuroglial cells, beta-amyloid", "value": "active"}, {"measurement": "efficacy compared between peptides", "setting": "[1]; survival of neuroglial cells", "value": "greater than that of STPTAIPQ"}]}]}
